Laboratory results taken from US10481149B2.
Read-outs that look alike come from different tables or passages of the source.

How the values were obtained:
BSEP [1] = molecular target: T1, BSEP (Rattus norvegicus, UniProt O70127); assay: Inhibition of BSEP activity (transport of glycocholate) in rat hepatocytes
T1 sequence (O70127 1-1321): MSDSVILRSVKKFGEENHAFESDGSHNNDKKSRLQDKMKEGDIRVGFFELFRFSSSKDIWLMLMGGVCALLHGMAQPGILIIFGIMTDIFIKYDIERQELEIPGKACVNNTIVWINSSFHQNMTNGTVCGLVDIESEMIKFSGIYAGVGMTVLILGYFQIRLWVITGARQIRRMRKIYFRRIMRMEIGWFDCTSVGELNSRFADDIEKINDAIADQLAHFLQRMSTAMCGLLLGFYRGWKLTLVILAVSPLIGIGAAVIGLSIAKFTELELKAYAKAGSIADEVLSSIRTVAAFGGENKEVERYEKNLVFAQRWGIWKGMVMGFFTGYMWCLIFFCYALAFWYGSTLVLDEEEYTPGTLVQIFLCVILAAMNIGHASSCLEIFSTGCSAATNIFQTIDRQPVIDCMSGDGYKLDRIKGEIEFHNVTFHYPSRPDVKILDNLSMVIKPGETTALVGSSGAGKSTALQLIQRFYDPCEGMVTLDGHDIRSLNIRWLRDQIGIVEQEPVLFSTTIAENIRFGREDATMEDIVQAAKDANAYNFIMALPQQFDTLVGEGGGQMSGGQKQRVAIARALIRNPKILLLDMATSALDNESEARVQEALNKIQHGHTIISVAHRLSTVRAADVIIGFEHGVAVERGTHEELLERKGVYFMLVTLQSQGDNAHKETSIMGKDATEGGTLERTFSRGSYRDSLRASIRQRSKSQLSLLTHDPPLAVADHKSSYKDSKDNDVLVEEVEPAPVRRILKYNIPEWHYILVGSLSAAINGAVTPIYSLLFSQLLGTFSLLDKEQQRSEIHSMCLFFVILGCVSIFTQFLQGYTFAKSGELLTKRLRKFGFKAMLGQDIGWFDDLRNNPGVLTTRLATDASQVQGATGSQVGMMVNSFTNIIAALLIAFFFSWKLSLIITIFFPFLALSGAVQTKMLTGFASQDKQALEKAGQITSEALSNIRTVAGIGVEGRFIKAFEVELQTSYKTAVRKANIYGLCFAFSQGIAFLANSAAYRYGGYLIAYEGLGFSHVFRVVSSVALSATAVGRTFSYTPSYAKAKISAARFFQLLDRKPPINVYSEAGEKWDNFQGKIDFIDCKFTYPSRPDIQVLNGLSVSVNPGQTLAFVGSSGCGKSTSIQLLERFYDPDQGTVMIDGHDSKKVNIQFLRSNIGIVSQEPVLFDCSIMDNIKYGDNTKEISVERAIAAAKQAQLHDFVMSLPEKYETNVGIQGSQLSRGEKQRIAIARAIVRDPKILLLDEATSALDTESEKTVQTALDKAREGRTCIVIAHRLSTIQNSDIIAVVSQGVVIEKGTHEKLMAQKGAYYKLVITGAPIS

BSEP [2] = molecular target: BSEP (Homo sapiens, UniProt O95342); assay: in vitro
BSEP [3] = molecular target: BSEP (Macaca fascicularis, UniProt D2CFL3); assay: in vitro; settings: monkey, hepatocytes in suspension, probe glycocholate
BSEP [4] = molecular target: T2, BSEP (Canis lupus familiaris, UniProt B8K1W2); assay: Inhibition of BSEP activity (transport of taurocholate) in dog hepatocytes
T2 sequence (B8K1W2 1-1325): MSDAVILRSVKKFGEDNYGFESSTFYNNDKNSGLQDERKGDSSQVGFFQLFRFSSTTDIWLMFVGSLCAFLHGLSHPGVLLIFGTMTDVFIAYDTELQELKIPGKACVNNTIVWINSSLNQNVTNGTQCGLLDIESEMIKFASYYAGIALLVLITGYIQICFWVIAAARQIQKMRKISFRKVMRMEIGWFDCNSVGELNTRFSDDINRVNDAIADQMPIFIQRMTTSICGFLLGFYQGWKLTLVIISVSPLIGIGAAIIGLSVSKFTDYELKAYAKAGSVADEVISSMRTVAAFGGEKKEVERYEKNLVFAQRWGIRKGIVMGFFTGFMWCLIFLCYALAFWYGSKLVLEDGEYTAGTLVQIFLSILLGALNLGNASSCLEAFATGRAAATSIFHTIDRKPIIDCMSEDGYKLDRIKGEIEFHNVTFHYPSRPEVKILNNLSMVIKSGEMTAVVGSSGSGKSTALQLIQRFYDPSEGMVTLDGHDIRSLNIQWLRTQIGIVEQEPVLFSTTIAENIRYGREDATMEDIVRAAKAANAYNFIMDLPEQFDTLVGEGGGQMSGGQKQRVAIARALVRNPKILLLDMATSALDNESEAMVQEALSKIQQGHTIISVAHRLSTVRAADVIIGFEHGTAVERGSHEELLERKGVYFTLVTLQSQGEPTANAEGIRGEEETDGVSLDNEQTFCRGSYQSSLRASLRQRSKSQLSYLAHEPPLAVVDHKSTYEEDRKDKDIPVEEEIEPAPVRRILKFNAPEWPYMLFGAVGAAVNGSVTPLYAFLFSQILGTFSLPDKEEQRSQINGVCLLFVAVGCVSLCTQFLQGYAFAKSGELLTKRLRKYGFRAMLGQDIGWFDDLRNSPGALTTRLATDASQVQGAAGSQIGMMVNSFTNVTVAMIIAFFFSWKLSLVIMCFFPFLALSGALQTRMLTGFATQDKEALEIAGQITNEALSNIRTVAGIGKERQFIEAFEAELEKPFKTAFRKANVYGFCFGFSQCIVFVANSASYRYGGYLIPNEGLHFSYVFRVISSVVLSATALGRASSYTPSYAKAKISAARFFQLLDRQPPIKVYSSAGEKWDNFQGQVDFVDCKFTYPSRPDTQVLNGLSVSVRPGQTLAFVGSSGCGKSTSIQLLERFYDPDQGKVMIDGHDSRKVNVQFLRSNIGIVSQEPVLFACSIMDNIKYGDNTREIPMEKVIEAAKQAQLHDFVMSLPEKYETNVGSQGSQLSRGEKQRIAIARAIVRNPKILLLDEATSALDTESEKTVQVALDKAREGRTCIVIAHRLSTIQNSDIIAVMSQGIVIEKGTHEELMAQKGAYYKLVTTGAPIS

[5] = hepatocytes in suspension, probe glycocholate
[6] = hepatocytes in suspension, probe taurocholate

Sequence of BSEP (Homo sapiens, UniProt O95342) (O95342 whole entry): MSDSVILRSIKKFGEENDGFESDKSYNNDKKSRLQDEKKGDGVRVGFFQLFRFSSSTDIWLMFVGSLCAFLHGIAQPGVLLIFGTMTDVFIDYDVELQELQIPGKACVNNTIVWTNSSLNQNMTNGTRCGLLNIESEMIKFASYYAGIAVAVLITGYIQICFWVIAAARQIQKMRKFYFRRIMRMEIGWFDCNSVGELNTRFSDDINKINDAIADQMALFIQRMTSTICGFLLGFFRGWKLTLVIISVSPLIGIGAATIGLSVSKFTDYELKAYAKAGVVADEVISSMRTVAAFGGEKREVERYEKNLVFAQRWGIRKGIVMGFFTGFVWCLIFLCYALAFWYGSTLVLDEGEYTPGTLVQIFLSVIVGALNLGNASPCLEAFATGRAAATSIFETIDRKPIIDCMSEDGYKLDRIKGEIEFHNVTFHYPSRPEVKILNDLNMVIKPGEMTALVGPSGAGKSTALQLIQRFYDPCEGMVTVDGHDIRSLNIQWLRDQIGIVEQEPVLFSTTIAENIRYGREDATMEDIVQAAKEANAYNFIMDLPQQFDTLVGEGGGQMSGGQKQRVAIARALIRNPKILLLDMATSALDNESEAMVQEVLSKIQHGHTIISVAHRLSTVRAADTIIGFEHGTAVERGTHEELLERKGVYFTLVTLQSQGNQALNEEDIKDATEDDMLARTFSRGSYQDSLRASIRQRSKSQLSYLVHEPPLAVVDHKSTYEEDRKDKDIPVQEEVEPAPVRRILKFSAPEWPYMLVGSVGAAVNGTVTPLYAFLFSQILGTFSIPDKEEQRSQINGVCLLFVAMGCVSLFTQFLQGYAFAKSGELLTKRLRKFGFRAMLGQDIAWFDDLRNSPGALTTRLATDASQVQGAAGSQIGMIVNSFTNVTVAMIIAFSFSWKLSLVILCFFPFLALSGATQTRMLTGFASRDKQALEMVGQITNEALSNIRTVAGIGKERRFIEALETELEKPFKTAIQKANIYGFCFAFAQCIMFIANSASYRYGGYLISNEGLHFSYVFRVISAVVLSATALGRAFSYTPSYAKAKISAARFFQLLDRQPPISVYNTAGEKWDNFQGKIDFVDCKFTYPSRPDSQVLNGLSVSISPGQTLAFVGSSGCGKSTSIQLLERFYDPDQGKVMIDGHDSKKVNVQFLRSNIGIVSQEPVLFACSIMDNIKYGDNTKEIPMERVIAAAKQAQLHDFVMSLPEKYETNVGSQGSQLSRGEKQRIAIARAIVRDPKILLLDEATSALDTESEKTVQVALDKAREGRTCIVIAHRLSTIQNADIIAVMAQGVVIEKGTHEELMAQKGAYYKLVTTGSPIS
Sequence of BSEP (Macaca fascicularis, UniProt D2CFL3) (D2CFL3 1-1323): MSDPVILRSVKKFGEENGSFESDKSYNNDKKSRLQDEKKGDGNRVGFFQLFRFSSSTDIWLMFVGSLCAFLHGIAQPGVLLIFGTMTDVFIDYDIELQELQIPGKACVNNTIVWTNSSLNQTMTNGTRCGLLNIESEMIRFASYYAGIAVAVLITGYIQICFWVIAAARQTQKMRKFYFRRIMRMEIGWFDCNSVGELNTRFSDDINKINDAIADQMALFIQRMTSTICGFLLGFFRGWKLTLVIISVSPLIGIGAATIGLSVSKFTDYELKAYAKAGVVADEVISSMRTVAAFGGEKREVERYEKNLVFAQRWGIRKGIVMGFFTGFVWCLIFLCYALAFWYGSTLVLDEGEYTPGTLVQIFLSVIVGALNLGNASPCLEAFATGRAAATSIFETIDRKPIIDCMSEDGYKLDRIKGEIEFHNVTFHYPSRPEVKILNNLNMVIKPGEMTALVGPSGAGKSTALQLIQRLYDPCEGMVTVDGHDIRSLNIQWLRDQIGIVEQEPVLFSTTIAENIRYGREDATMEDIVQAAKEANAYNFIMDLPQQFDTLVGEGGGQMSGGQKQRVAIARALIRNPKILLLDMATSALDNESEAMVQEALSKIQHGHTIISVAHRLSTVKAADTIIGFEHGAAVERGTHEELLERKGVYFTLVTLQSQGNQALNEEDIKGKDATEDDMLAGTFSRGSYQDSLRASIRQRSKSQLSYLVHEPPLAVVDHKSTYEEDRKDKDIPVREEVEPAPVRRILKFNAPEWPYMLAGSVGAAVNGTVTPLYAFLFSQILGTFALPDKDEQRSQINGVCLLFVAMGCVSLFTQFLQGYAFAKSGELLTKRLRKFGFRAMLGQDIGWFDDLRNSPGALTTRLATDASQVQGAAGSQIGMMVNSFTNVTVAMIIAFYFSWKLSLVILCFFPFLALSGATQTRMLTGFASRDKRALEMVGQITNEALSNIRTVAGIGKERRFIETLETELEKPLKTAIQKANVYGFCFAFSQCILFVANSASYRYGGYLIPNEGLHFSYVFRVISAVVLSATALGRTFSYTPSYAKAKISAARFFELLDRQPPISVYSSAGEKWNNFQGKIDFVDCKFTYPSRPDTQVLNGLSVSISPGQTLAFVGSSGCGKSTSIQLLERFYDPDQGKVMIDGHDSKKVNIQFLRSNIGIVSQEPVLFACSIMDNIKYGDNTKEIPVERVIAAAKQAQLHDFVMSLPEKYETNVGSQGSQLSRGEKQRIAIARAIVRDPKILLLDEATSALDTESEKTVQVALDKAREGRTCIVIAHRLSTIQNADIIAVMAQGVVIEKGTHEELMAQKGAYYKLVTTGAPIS

Structure (SMILES)	inhibition at 1 h, 1 μM (BSEP [1]; [5]) [%]	inhibition at 1 h, 10 μM (BSEP [1]; [5]) [%]	inhibition at 1 h, 1 μM (BSEP [2]; [5]) [%]	inhibition at 1 h, 10 μM (BSEP [2]; [5]) [%]	inhibition at 1 h, 1 μM (BSEP [3]) [%]	inhibition at 1 h, 10 μM (BSEP [3]) [%]	inhibition at 1 h, 1 μM (BSEP [4]; [6]) [%]	inhibition at 1 h, 10 μM (BSEP [4]; [6]) [%]	inhibition at 1 h, 1 μM (BSEP [1]) [%]	inhibition at 1 h, 10 μM (BSEP [1]) [%]	inhibition at 1 h, 1 μM (BSEP [2]) [%]	inhibition at 1 h, 10 μM (BSEP [2]) [%]	inhibition at 1 h, 1 μM (BSEP [4]) [%]	inhibition at 1 h, 10 μM (BSEP [4]) [%]
CC(C)NCC(O)COc1cccc2ccccc12 (stereo not shown) [Propranolol, propranolol]	< 50	< 50	< 50	< 50	< 50	< 50	< 50	< 50						
CC[C@]1(O)C[C@@H]2CN(CCc3c([nH]c4ccccc34)[C@@](C(=O)OC)(c3cc4c(cc3OC)N(C)[C@H]3[C@@](O)(C(=O)OC)[C@H](OC(C)=O)[C@]5(CC)C=CCN6CC[C@]43[C@@H]65)C2)C1 [Vinblastine, vinblastine]	< 50	> 50	< 50	> 50	< 50	< 50	< 50	< 50						
Cc1c(C)c2c(c(C)c1O)CCC(C)(COc1ccc(CC3SC(=O)NC3=O)cc1)O2 (stereo not shown) [Troglitazone, troglitazone]	> 50	> 50	> 50	> 50	> 50	> 50	< 50	> 50						
C[C@@H](Oc1cc(-c2cnn(C3CCNCC3)c2)cnc1N)c1c(Cl)ccc(F)c1Cl [Crizotinib, crizotinib]	< 50	> 50	< 50	> 50	< 50	< 50	< 50	> 50						
COC(=O)N[C@H](C(=O)N[C@@H](Cc1ccccc1)[C@@H](O)CN(Cc1ccc(-c2ccccn2)cc1)NC(=O)[C@@H](NC(=O)OC)C(C)(C)C)C(C)(C)C [Atazanavir, atazanavir]	> 50	> 50	< 50	> 50	< 50	> 50	< 50	> 50						
OC(Cn1cncn1)(Cn1cncn1)c1ccc(F)cc1F [Fluconazole, fluconazole]	< 50	< 50	< 50	< 50	< 50	< 50	< 50	< 50						
O=c1c(O)c(-c2ccc(O)c(O)c2)oc2cc(O)cc(O)c12 [Quercetin, quercetin]	< 50	< 50	< 50	< 50	< 50	< 50	< 50	> 50						
S=P(N1CC1)(N1CC1)N1CC1 [Thiotepa, thiotepa]					< 50	< 50			< 50	< 50	< 50	< 50	< 50	< 50
C=C[C@H]1C[N@@]2CC[C@H]1C[C@@H]2[C@@H](O)c1ccnc2ccc(OC)cc12 [Quinidine, quinidine]	< 50	< 50	< 50	< 50	< 50	< 50	< 50	< 50						
CC(=O)N1CCN(c2ccc(OCC3COC(Cn4ccnc4)(c4ccc(Cl)cc4Cl)O3)cc2)CC1 (stereo not shown) [Ketoconazole, ketoconazole]	< 50	> 50	< 50	< 50	< 50	> 50	< 50	< 50						
Cc1c(O)cccc1C(=O)N[C@@H](CSc1ccccc1)[C@H](O)CN1C[C@H]2CCCC[C@H]2C[C@H]1C(=O)NC(C)(C)C [Nelfinavir, nelfinavir]	< 50	> 50	< 50	> 50	< 50	> 50	< 50	> 50						
